Assay results as given in article PMC13114161 (Antibiotics, 2026).
Where two headings read alike, the source gives them in different places.

Key:
P. aeruginosa = assay: Effect of inoculum on levofloxacin potentiation (MIC); type: cell-based, Pseudomonas aeruginosa
Description: MIC assays for potentiation of antimicrobial activity against P. aeruginosa were performed as described previously.

P. aeruginosa ATCC 27853 = type: cell-based, Pseudomonas aeruginosa
Description: OmpH is a homologous periplasmic chaperone that binds newly synthesized, unfolded outer membrane proteins (OMPs) and delivers them to the outer membrane for assembly by the BAM machinery, thereby preventing aggregation and facilitating proper membrane insertion.
Frequency-of-resistance studies were carried out as described previously.

Nav1.5 (peak current) = target: T1, Nav1.5 (peak current) (Homo sapiens, UniProt Q14524); assay: QPatch ion channel assay; type: cell-based; conditions: read-out: % Inhibition (n = 2), Nav1.5
T1 construct: host or cells: HEK-293
T1 sequence (Q14524 whole entry): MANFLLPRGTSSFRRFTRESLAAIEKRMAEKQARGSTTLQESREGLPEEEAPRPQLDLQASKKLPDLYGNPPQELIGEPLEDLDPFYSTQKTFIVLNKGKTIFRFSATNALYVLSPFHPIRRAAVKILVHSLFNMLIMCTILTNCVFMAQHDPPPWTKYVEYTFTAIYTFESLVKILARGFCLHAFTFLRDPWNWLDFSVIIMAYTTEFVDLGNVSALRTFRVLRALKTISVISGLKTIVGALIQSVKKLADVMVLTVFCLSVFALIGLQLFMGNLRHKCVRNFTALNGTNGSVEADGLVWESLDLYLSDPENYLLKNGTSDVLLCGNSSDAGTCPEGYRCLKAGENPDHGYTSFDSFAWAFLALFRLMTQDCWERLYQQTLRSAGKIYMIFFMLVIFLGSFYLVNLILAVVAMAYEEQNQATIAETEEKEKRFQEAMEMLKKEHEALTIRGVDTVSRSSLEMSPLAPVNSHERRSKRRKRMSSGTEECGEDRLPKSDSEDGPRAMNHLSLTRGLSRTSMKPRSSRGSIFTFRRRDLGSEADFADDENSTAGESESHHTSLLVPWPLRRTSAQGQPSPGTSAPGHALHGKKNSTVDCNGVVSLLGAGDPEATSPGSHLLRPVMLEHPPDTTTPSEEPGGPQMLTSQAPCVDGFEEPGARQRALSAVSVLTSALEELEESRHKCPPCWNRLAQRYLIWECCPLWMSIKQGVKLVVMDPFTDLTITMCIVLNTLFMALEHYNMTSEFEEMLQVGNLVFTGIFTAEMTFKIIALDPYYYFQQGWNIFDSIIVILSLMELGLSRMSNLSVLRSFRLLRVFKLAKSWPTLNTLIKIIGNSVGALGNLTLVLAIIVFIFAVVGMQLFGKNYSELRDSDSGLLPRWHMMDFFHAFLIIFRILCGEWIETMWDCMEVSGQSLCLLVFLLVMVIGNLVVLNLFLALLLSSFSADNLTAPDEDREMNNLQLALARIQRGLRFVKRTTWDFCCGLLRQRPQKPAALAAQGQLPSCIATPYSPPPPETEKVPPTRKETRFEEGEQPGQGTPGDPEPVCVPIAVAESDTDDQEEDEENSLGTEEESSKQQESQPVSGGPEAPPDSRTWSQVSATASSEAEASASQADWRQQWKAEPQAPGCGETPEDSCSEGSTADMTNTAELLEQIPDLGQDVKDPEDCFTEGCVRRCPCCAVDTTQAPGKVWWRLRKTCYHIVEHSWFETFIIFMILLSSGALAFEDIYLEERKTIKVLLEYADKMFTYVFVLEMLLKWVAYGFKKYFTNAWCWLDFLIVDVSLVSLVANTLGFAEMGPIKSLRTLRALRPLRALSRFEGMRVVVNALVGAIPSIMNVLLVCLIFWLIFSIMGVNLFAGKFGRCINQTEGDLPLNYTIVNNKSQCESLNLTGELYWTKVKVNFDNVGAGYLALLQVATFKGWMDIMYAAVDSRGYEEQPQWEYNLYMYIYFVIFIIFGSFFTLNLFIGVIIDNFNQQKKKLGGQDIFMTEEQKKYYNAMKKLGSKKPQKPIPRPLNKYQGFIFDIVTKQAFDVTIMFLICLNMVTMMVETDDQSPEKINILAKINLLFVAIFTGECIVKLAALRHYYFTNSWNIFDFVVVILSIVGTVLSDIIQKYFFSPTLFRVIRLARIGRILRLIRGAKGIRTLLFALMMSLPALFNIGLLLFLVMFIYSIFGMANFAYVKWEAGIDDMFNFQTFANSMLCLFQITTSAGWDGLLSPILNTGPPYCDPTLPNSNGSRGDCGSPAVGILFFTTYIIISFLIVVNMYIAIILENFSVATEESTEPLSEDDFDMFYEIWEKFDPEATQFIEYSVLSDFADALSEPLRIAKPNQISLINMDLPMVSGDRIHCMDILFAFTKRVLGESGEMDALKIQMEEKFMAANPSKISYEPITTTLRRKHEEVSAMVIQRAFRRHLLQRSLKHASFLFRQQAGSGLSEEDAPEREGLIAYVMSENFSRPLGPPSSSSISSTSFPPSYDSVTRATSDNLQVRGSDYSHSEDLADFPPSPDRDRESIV
Excerpt: (§1) The automated whole-cell patch-clamp (Qpatch HT) technique is used to record depolarizing currents, hNav1.5 and hCav1.2, and repolarizing potassium currents, hERG. Cells Recombinant HEK-293 cells stably transfected with human Nav1.5 cDNA, Recombinant HEK293 cell line expressing the human Cav1.2 (L-type voltage-gated calcium channel, hCav1.2 α1C/β2a/α2δ1, and recombinant CHO-K1 cells stably transfected with human hERG cDNA are used separately in each of these assays. The cells are harvested by Accutase and maintained in Serum-Free Medium at room temperature before assay. On the instrument, the cells are pipetted into each well of a 48-well plate in external solution. Test concentration stock solution is prepared in DMSO at 300× the final assay concentrations, and stored at −20 °C until the day of assay. On the day of the assay, an aliquot of the stock solution is thawed and diluted into external solution to make final test concentrations. A final concentration of 0.33% DMSO is maintained for each concentration of the assay compounds and controls. The assay is conducted at room temperature. Recording conditions hNav1.5 Peak current Onset and steady state block of peak Nav1.5 current are measured using a pulse pattern, repeated every 5 sec, consisting of a hyperpolarizing pulse to −120 mV for a 200 ms duration, depolarization to −15 mV amplitude for a 40 ms duration, followed by a step to 40 mV for 200 ms and finally a 100 ms ramp (1.2 V/s) to a holding potential of −80 mV. hCav1.2 currents are evoked following a 100 ms pulse to −60 mV followed by a 50 ms pulse to +10 mV before returning to the holding potential of −90 mV. This paradigm is delivered three times once every 20 s. Cells are held at −90 mV with a 5 s pulse to −60 mV every 20 s for a total of 120 s between each set of three pulses. The cell is held at −80 mV. Then the cell is depolarized to +40 mV for 500 ms and then to −80 mV over a 100 ms ramp to elicit the hERG tail current. This paradigm is delivered once every 8 s. The Extracellular Solution (control) is applied first and the cell is stabilized in the solution for 5 min. Then the test compound is applied from low to high concentrations sequentially on the same cell. The cells are incubated with each test concentration for 5 min. Reference compounds Tetracaine Nifedipine and E-4031 are tested concurrently for hNav1.5, hCav1.2 and hERG, respectively, at multiple concentrations to obtain an IC50 value.
(§2) The amplitude of the sodium current is calculated by measuring the difference between the peak inward current on stepping to −10 mV (i.e., peak current) and the leak current. The sodium current is assessed in vehicle control conditions and then at the end of each five (5)-minute compound application. Individual cell results are normalized to the vehicle control amplitude and the mean ± SEM is calculated for each compound concentration. These values are then plotted and estimated IC50 curve fits are calculated. The maximum inward current elicited on stepping to +10 mV for 50msec from −60 mV is measured. Compound interaction is assessed by dividing post-current amplitude (at the end of each three (3)-minute compound application) by the vehicle control amplitude and the mean calculated for each compound concentration. These values are then plotted and estimated IC50 curve fits are calculated. The percent inhibition of the hERG channel is calculated by comparing the peak (hERG tail) current amplitude before and after application of the compound (the current difference is normalized to vehicle control values).

hERG = target: T2, hERG (Homo sapiens, UniProt Q12809); assay: QPatch ion channel assay; type: cell-based; conditions: CHO-K1 cells stably transfected with human hERG, read-out: % Inhibition (n = 2), hERG
T2 construct: host or cells: CHO-K1
T2 sequence (Q12809 whole entry): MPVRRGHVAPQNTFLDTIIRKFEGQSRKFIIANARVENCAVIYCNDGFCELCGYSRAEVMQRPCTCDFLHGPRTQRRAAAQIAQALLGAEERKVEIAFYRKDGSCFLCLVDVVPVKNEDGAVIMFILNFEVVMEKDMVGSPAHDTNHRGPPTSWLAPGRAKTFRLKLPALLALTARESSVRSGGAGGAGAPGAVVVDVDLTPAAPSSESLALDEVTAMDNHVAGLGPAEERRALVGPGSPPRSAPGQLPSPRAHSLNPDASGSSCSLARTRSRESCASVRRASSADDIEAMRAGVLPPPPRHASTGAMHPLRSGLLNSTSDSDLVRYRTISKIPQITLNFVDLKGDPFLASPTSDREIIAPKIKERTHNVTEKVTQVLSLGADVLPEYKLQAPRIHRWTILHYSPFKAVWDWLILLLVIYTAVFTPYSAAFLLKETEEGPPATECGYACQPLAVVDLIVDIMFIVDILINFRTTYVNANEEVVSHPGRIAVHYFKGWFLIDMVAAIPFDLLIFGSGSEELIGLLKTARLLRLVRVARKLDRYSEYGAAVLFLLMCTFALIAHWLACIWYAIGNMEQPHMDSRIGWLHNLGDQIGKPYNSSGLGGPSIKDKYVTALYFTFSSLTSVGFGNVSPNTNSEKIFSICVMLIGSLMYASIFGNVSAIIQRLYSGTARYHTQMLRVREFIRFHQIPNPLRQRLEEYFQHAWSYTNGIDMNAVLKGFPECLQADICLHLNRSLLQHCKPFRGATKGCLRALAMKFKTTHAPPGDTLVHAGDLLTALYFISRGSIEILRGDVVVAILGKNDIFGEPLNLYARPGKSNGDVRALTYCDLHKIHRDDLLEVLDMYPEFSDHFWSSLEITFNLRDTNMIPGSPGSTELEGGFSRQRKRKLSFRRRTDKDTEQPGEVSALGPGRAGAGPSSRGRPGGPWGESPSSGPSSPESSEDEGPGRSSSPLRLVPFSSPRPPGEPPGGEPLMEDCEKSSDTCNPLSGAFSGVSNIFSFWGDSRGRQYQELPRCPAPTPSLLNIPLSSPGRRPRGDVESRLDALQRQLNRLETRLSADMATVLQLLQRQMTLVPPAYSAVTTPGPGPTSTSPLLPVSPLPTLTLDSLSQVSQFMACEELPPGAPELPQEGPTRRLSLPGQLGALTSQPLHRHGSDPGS
Excerpt: as §1, §2

Cav1.2 = target: T3, Cav1.2 (Homo sapiens, UniProt Q13936); assay: QPatch ion channel assay; type: cell-based; conditions: read-out: % Inhibition (n = 2), Cav1.2
T3 construct: host or cells: HEK293
Excerpt: as §1, §2

SMILES	LVX MIC (P. aeruginosa; OD600 0.001, TXA11114 0 μg/mL)	LVX MIC (P. aeruginosa; OD600 0.025, TXA11114 0 μg/mL)	Frequency of Resistance (P. aeruginosa ATCC 27853; ATCC 27853, levofloxacin 4× MIC (4 μg/mL) alone)	inhibition at 5 min, 10 µM (Nav1.5 (peak current))	inhibition at 5 min, 10 µM (hERG)	inhibition at 3 min, 10 µM (Cav1.2)	LVX MIC (P. aeruginosa; OD600 0.001, TXA11114 25 μg/mL)	LVX MIC fold difference (P. aeruginosa; OD600 0.001, TXA11114 25 μg/mL)	LVX MIC (P. aeruginosa; OD600 0.001, TXA11114 50 μg/mL)	LVX MIC fold difference (P. aeruginosa; OD600 0.001, TXA11114 50 μg/mL)	LVX MIC (P. aeruginosa; OD600 0.025, TXA11114 25 μg/mL)	LVX MIC fold difference (P. aeruginosa; OD600 0.025, TXA11114 25 μg/mL)	LVX MIC (P. aeruginosa; OD600 0.025, TXA11114 50 μg/mL)	LVX MIC fold difference (P. aeruginosa; OD600 0.025, TXA11114 50 μg/mL)	Minimal potentiation concentration (MPC) (P. aeruginosa; standard broth microdilution inoculum)	Frequency of Resistance (P. aeruginosa ATCC 27853)	FoR, resistance to TXA11114 alone (P. aeruginosa ATCC 27853; 1X-MIC (100 µg/mL), ATCC 27853)	FoR, resistance to TXA11114 alone (P. aeruginosa ATCC 27853; 4X-MIC (400 µg/mL), ATCC 27853)
C[C@H]1COc2c(N3CCN(C)CC3)c(F)cc3c(=O)c(C(=O)O)cn1c23 [Levofloxacin, levofloxacin]	1 µg/mL	2 µg/mL	3.80 × 10^−8	–	–	–	–	–	–	–	–	–	–	–	–	–	–	–
NC[C@@H]1CN[C@H](CNC(=O)c2cc3ccc(-c4ccc(F)cc4)cc3[nH]2)C1 [TXA09155]	–	–	–	0.1%	9.2%	12.7%	–	–	–	–	–	–	–	–	–	–	–	–
NCC(F)C[C@@H](N)CNC(=O)c1cc2ccc(-c3ccc(F)cc3)cc2[nH]1 (stereo partly drawn) [TXA11114, N-((2R)-2,5-diamino-4-fluoropentyl)-6-(4-fluorophenyl)-1H-indole-2-carboxamide]	–	–	–	-3.7%	10.9%	0.2%	0.031 µg/mL	32 fold	0.008 µg/mL	128 fold	0.063 µg/mL	32 fold	0.031 µg/mL	64 fold	6.25 µg/mL	<1.04 × 10^−10	1.8 × 10^−6	<3.09 × 10^−9
